Columns and labels:
[1] = xn = mol fraction of the nth substance listed; conditions: 100.9 kPa, Liquid, Concentric cylinders viscometry, x2 = 0
[2] = 101.33 kPa, Liquid; for viscosity: Concentric cylinders viscometry; for mass density: Vibrating tube method; for speed of sound: Single path-length method

O [water] + CCCC(=O)[O-].CC[NH2+]CC
[1]
Conditions	viscosity [mPa·s]
283.15 K	1.31
285.65 K	1.23
288.15 K	1.15
290.65 K	1.08
293.15 K	1.02
295.65 K	0.96
298.15 K	0.9
300.65 K	0.85
303.15 K	0.8
305.65 K	0.76
308.15 K	0.72
310.65 K	0.69
313.15 K	0.65
315.65 K	0.62
318.15 K	0.59
320.65 K	0.57
323.15 K	0.54
325.65 K	0.51
328.15 K	0.49
330.65 K	0.47
333.15 K	0.45
335.65 K	0.43
338.15 K	0.41
340.65 K	0.39
343.15 K	0.37

O [water]
[2]
Conditions	mass density [kg/m3]	speed of sound [m/s]	viscosity [mPa·s]
283 K	999.72	–	1.31
286 K	999.46	1457	1.23
288 K	–	–	1.15
291 K	998.69	1475	1.08
293 K	–	–	1.02
296 K	997.66	1490	0.96
298 K	–	–	0.9
301 K	996.37	1503	0.85
303 K	–	–	0.8
306 K	994.87	1515	0.76
308 K	–	–	0.72
311 K	993.15	1525	0.69
313 K	–	1529	0.65
316 K	991.23	1533	0.62
318 K	–	1537	0.59
321 K	989.15	1540	0.57
323 K	988.03	–	0.54

From the NIST ThermoML archive (doi:10.1016/j.fluid.2017.12.001)
